From ChEMBL document CHEMBL4251653, “In vivo potent BM635 analogue with improved drug-like properties” (Eur J Med Chem, 2018)
≈ marks a conversion by molar mass, not a printed value.

How the values were obtained:
[1] = Cytotoxicity against human HepG2 cells incubated for 48 hrs by Cell-titer Glo assay; format: cell-based; conditions: read-out: TC50
HepG2 [2] = test: Cytotoxicity against human HepG2 cells assessed as compound concentration causing changes in nuclear morphology by Cell Health assay; format: cell-based
HepG2 [3] = test: Cytotoxicity against human HepG2 cells assessed as compound concentration causing changes in membrane permeability by Cell Health assay; format: cell-based
HepG2 [4] = test: Cytotoxicity against human HepG2 cells assessed as compound concentration causing changes in mitochondrial potential by Cell Health assay; format: cell-based
[5] = Lipophilicity, log D of the compound at pH 7.4 by UV-HPLC method; format: physicochemical; conditions: buffer
[6] = Permeability of the compound by artificial membrane permeability assay; format: ADME; conditions: PAMPA; read-out: permeability
Albumin = Albumin (Homo sapiens, UniProt P02768); test: Binding affinity to human serum albumin; format: ADME; conditions: isolated protein
[7] = Kinetic solubility in pH 7.4 phosphate buffered saline incubated for 1 hr by chemiluminescent nitrogen detection method; format: physicochemical; conditions: read-out: Kinetic_solubility
[8] = Solubility of the compound in FaSSIF at pH 6.5 incubated for 4 hrs by UPLC-MS method; format: physicochemical
[9] = target: Voltage-gated inwardly rectifying potassium channel KCNH2 (Homo sapiens, UniProt Q12809); test: Inhibition of human ERG by [3H]dofetilide binding displacement assay
in vitro = conditions: human, HepG2 cells
Description: Selectivity index, ratio of TC50 for human HepG2 cells to MIC for Mycobacterium tuberculosis

[10] = test system: Mycobacterium tuberculosis; test: microbe, parasite or virus in culture; conditions: 144 h
Description: Antitubercular activity against Mycobacterium tuberculosis after 6 days by resazurin-based fluorescence assay

[11] = test system: Mycobacterium tuberculosis; test: microbe, parasite or virus in culture; conditions: H37Rv, THP-1, 96 h
Description: Antitubercular activity against Mycobacterium tuberculosis H37Rv infected in human THP1 macrophages incubated for 4 days by luciferase reporter gene assay

Voltage-gated inwardly rectifying potassium channel KCNH2, sequence (Q12809 whole entry): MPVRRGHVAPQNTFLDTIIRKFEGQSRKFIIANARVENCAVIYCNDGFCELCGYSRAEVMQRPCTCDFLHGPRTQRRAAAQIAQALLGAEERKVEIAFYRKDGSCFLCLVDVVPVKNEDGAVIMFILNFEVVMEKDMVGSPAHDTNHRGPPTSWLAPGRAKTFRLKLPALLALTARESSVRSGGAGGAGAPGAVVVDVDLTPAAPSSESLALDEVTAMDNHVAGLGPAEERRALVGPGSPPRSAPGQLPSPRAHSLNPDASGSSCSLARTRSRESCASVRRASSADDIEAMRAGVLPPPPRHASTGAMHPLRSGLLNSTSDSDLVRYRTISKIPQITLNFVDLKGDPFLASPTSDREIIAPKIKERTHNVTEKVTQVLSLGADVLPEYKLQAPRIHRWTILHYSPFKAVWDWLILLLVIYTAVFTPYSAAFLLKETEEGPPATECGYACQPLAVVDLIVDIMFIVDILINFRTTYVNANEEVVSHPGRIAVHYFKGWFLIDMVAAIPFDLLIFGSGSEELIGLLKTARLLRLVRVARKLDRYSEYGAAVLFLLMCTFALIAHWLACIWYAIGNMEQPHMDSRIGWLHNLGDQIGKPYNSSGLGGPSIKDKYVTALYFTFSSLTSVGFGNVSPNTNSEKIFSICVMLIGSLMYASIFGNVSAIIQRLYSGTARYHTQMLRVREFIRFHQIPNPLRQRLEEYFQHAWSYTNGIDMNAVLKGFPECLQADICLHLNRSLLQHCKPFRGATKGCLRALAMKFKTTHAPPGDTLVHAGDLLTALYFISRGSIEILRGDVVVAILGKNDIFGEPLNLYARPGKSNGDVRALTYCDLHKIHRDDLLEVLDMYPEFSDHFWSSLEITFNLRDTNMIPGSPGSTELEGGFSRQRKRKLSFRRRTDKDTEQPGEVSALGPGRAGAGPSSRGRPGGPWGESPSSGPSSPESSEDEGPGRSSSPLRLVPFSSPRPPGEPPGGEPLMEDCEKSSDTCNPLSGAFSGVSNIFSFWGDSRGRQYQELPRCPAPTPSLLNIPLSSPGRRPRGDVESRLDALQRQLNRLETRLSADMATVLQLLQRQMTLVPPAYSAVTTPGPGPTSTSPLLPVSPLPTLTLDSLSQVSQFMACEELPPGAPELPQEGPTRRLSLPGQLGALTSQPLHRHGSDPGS
Albumin, sequence (P02768 whole entry): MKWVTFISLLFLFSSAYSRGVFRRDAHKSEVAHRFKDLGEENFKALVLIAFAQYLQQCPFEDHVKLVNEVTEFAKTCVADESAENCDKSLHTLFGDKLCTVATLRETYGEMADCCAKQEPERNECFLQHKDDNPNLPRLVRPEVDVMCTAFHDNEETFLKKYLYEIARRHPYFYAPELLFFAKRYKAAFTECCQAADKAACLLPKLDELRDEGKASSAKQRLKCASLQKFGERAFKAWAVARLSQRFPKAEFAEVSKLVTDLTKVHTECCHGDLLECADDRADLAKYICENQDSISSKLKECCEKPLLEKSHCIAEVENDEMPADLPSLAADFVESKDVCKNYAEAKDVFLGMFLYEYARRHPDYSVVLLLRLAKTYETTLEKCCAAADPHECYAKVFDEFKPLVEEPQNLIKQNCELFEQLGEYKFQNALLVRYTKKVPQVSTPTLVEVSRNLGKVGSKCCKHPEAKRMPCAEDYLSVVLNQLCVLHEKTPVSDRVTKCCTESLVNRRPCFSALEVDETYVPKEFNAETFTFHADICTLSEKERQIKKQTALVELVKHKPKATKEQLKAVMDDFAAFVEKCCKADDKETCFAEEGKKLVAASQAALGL

Compound | CC50 at 48 h [1] | Activity (HepG2 [2]) | Activity (HepG2 [3]) | Activity (HepG2 [4]) | logD ([5]; read-out: logD) | Papp [6] | Activity (Albumin) | solubility kinetic at 1 h [7] | solubility at 4 h [8] | IC50 [9] | selectivity ratio (in vitro) | MIC [10] | IC50 [11] | logD [5]
Cc1c(CN2CCOCC2)cc(-c2ccc(C(C)C)cc2)n1-c1ccc(F)cc1 | 40 µM | > 40 µM | > 40 µM | > 40 µM | 8.1 | 24 ×10⁻⁶ cm/s | 98.37% | < 1 µM | 5 µg/mL (≈ 12.7 µM) | 10 µM | 333 | 0.12 µM (≈ 0.0471 µg/mL) | 0.1 µM | 
COc1ccc(-c2cc(CN3CCOCC3)c(C)n2C(C)C)cc1 |  |  |  |  |  |  |  |  |  |  |  | 2.5 µM (≈ 0.821 µg/mL) |  | 
Cc1c(CN2CCOCC2)cc(-c2ccc(C(C)C)cc2)n1C1CCCC(O)C1 (stereo not given) | 20 µM |  |  |  |  |  |  |  |  |  |  | > 40 µM |  | 
Cc1c(CN2CCOCC2)cc(-c2ccc(C(C)C)cc2)n1Cc1ccc(F)cc1 | 20 µM |  |  |  | 8.2 | 30 ×10⁻⁶ cm/s | 98.47% | 11 µM (≈ 4.47 µg/mL) |  | 5 µM | 250 | 0.08 µM (≈ 0.0325 µg/mL) | 0.16 µM | 
Cc1c(CN2CCOCC2)cc(-c2ccc(C(F)(F)F)cc2)n1C1CCC1 | 20 µM |  |  |  |  |  |  |  |  |  | 67 | 1.25 µM (≈ 0.473 µg/mL) |  | 
Cc1[nH]c(-c2ccc(C(C)C)cc2)cc1CN1CCOCC1 | 1.6 µM |  |  |  |  |  |  |  |  |  |  | 12.5 µM (≈ 3.73 µg/mL) | > 10 µM | 
Cc1c(CN2CCOCC2)cc(-c2ccc(C(C)C)cc2)n1CC(C)(C)O | 40 µM | 50 µM | 100 µM | 126 µM |  |  |  |  |  |  |  | 2.5 µM (≈ 0.926 µg/mL) | 2.5 µM | 
COCCCn1c(-c2ccc(C(C)C)cc2)cc(CN2CCOCC2)c1C |  | 32 µM | 40 µM | 50 µM |  |  |  |  |  |  |  | 1.3 µM (≈ 0.482 µg/mL) | 1.25 µM | 
CC(=O)Nc1ccc(-c2cc(CN3CCOCC3)c(C)n2-c2ccc(F)cc2)cc1 | 80 µM |  |  |  |  |  |  |  |  |  | 40 | 1.25 µM (≈ 0.509 µg/mL) | 3.3 µM | 
Cc1c(CN2CCOCC2)cc(-c2ccc(C(C)C)cc2)n1CC(C)C | 20 µM |  |  |  | 8.46 | 43 ×10⁻⁶ cm/s | 97.12% | 47 µM (≈ 16.7 µg/mL) |  | 16 µM | 100 | 0.2 µM (≈ 0.0709 µg/mL) | 0.08 µM | 
Cc1c(CN2CCOCC2)cc(-c2ccc(C(C)C)cc2)n1CCCC(=O)O | > 100 µM |  |  |  |  |  |  |  |  |  |  | > 40 µM |  | 
Cc1c(CN2CCOCC2)cc(-c2ccc(C(C)C)cc2)n1-c1ccc(C(=O)O)cc1 | > 100 µM |  |  |  |  |  |  |  |  |  |  | > 40 µM |  | 
Cc1c(CN2CCOCC2)cc(Cc2ccccc2)n1-c1ccc(F)cc1 | 10 µM |  |  |  |  |  |  |  |  |  |  | > 5 µM |  | 
Cc1cc(CN2CCOCC2)c(C)n1-c1ccc(F)cc1 | > 100 µM |  |  |  |  |  |  |  |  |  |  | > 5 µM | > 10 µM | 
Cc1c(CN2CCOCC2)cc(-c2ccc(C(C)C)cc2)n1[C@@H]1CCCNC1 | 16 µM |  |  |  |  |  |  |  |  |  |  | > 80 µM |  | 
Cc1c(CN2CCOCC2)cc(-c2ccc(C(C)C)cc2)n1CC1CCCO1 (stereo not given) | 32 µM | 40 µM | 50 µM | 63 µM |  |  |  |  |  |  |  | 5 µM (≈ 1.91 µg/mL) | 5 µM | 
Cc1c(CN2CCOCC2)cc(-c2ccc(C(C)C)cc2)n1C1CCCCC1 | > 100 µM | > 200 µM | > 200 µM | > 200 µM |  | 27 ×10⁻⁶ cm/s | 98.1% | < 1 µM |  | 50 µM | > 267 | 0.3 µM (≈ 0.114 µg/mL) | 0.63 µM | 9.13
Cc1c(CN2CCOCC2)cc(-c2ccc(C(C)C)cc2)n1C | 16 µM | 40 µM | 40 µM | 50 µM |  |  |  |  |  |  | 13 | 1.25 µM (≈ 0.391 µg/mL) | 1.25 µM | 
Cc1c(CN2CCOCC2)cc(-c2ccc(C(C)C)cc2)n1C1CCOCC1 | 50.1 µM |  |  |  |  |  |  |  |  |  |  | 2.5 µM (≈ 0.956 µg/mL) |  | 
Cc1cc(Cl)ccc1-c1cc(CN2CCOCC2)c(C)n1-c1ccc(F)cc1 | > 100 µM | > 200 µM | > 200 µM | > 200 µM |  |  |  |  |  |  |  | 5 µM (≈ 1.99 µg/mL) | > 10 µM | 
Cc1c(CN2CCOCC2)cc(-c2ccc(Cl)cn2)n1-c1ccc(F)cc1 | > 100 µM | > 200 µM | > 200 µM | > 200 µM |  |  |  |  |  |  |  | > 125 µM | > 10 µM | 
